Results taken from patent publication US20070004036A1, “Methods and compositions for keratinocyte culture” (priority 2005, published 2007).

System: Human dermal adult and newborn skin fibroblasts
Assay: Fibroblast proliferation in SFM and serum-containing media
Format: cell-based
Details: primary and secondary culture, FIG. 5
Procedure: Human dermal adult and newborn skin fibroblasts were cultured in a SFM and serum-containing media (DMEM 5% FBS). Collagenase (1 μg/ml) was added to the DMEM serum free media (SFM) and tested on primary and secondary culture of human adult and newborn fibroblasts. In both cases (SFM and DMEM 5%) Collagenase increase cell proliferation up to 2-2.5 fold over the controls.

Collagenase was tested, and the “increase in cell proliferation over the controls” value (DMEM 5% FBS) was 2-2.5 fold and the “increase in cell proliferation over the controls” value (SFM, collagenase 1 μg/ml) was 2-2.5 fold.
